From publication PMC11961695 (Annals of oncology : official journal of the European …, 2022)
“Also recorded” adds a separate entry of the source. Where two headings read alike, the source gives them in different places.

Tests used:
serum phosphate = test: Serum phosphate pharmacodynamics and Emax exposure-response model; details: in vivo
[1] = FIGHT-101 safety and tolerability
[2] = FIGHT-101 clinical pharmacokinetics
[3] = system: locally advanced or metastatic cholangiocarcinoma; details: cited from earlier work
[4] = system: refractory advanced malignancies with and without FGF/FGFR alterations; test: FIGHT-101 tumor response per investigator
[5] = all treated patients, any grade
[6] = FIGHT-202, FGFR2 fusions or rearrangements
[7] = cholangiocarcinoma with FGFR2 fusions or rearrangements (13 patients)

CCN1C(=O)N(c2c(F)c(OC)cc(OC)c2F)Cc2cnc3[nH]c(CN4CCOCC4)cc3c21 [pemigatinib]
Pharmacologically active doses (serum phosphate): ≥ 4 mg | Dose-limiting toxicities ([1]; 1–20 mg QD, ID or CD, cycle 1): No dose-limiting toxicities were reported; also recorded: No DLTs were reported in any dose cohort; also recorded: No DLTs were encountered | Clinically notable TEAEs ([1]; CD): 86.2% | Dose interruptions due to TEAEs ([1]; CD): 74.1% | Dose reductions due to TEAEs ([1]; CD): 17.2% | Fatigue, grade ≥3 TEAE ([1]; CD): 15.5% | Grade ≥3 TEAEs ([1]; CD): 75.9% | Grade ≥3 hyponatremia ([1]; CD): 10.3% | Grade ≥3 stomatitis ([1]; CD): 17.2% | Hyperphosphatemia, any-cause TEAE ([1]; CD): 82.8% | Hypophosphatemia events ([1]; CD): 12.1% | Treatment discontinuations due to TEAEs ([1]; CD): 12.1% | Clinically notable TEAEs ([1]; ID): 77.1% | Dose interruptions due to TEAEs ([1]; ID): 32.9% | Dose reductions due to TEAEs ([1]; ID): 5.7% | Fatigue, grade ≥3 TEAE ([1]; ID): 5.7% | Grade ≥3 TEAEs ([1]; ID): 50.0% | Grade ≥3 hyponatremia ([1]; ID): 7.1% | Grade ≥3 stomatitis ([1]; ID): 1.4% | Hyperphosphatemia, any-cause TEAE ([1]; ID): 68.6% | Hypophosphatemia events ([1]; ID): 18.6% | Treatment discontinuations due to TEAEs ([1]; ID): 8.6% | TEAEs of dry eye ([1]; all patients): 23.4% | TEAEs of eyelash changes ([1]; all patients): 13.3% | TEAEs of serous retinal detachment ([1]; all patients): no TEAEs of serous retinal detachment; also recorded: no serous retinal detachment events were reported | TEAEs of vision blurred ([1]; all patients): 16.4% | TEAEs of vitreous detachment ([1]; all patients): 1.6% | Clinically notable TEAEs ([1]; all treated patients): 81.3% | Dose interruption due to hypophosphatemia ([1]; all treated patients): 1.6% | Dose interruption due to nail toxicities ([1]; all treated patients): 7.8% | Dose interruption for hyperphosphatemia ([1]; all treated patients): 9.4% | Dose reduction due to nail toxicities ([1]; all treated patients): 0.8% | Dose reduction for hyperphosphatemia ([1]; all treated patients): 1.6% | Dose reductions due to hypophosphatemia ([1]; all treated patients): none required dose reductions | Fatigue, grade ≥3 TEAE ([1]; all treated patients): 10.2% | Hyperphosphatemia requiring dose interruption ([1]; all treated patients): 12 n | Hyperphosphatemia, grade ≥3 ([1]; all treated patients): 2.3% | Nail discoloration ([1]; all treated patients): 13.3% | Onycholysis ([1]; all treated patients): 14.8% | Paronychia ([1]; all treated patients): 10.2% | Patients with TEAE-related treatment discontinuation ([1]; all treated patients): 10.2% | Patients with a TEAE ([1]; all treated patients): 99.2% | Patients with dose interruption due to TEAEs ([1]; all treated patients): 51.6% | Patients with dose reduction due to TEAEs ([1]; all treated patients): 10.9% | Treatment-related TEAE ([1]; all treated patients): 90.6% | Hyperphosphatemia, any-cause TEAE ([1]; all treated patients (N = 128), any grade): 75% | Stomatitis requiring dose reduction ([1]; all treated patients (all CD)): 4 n | Pneumonia requiring discontinuation ([1]; all treated patients (both ID)): 2 n | Small intestinal obstruction requiring discontinuation ([1]; all treated patients (both ID)): 2 n | Hyperphosphatemia, treatment-related TEAE [1, 5]: 73.4% | Hypophosphatemia events [1, 5]: 15.6% | Nail toxicities [1, 5]: 32.0% | Hyperphosphatemia, treatment-related TEAE ([1]; all treated patients, grade ≥3): 1.6% | Hypophosphatemia events ([1]; all treated patients, grade ≥3): 5.5% | Nail toxicities ([1]; all treated patients, grade ≥3): 3.1% | Treatment discontinuations resulting from clinically notable TEAEs ([1]; grade 3 paronychia (20 mg CD), grade 2 trichiasis (13.5 mg CD)): two | Permanent treatment discontinuation due to hyperphosphatemia ([1]; in vivo): None of the hyperphosphatemia events resulted in permanent treatment discontinuation | Relation of deaths due to TEAEs to treatment ([1]; in vivo): None of these deaths were considered treatment-related | Maximum tolerated dose ([1]; monotherapy, 1–20 mg QD): not reached | Increase in average per-cycle exposure, CD versus ID regimen ([2]; 13.5 mg QD): 50% | Dose proportionality of steady-state Cmax and AUC0–24 ([2]; 1–20 mg QD): dose-proportional increases | Effect of a high-fat and high-calorie meal on pharmacokinetics ([2]; human, in vivo): modest effects on pemigatinib pharmacokinetics that were not considered clinically meaningful | half-life ([2]; human, in vivo, Steady-state geometric mean terminal-phase disposition half-life, doses ≥6 mg QD): 12.1 to 15.4 h | Disease control rate [3, 6]: 82% | Estimated median OS [3, 6]: 17.5 months | ORR [3, 6]: 35.5% | Disease control rate ([3]; FIGHT-202, no FGF/FGFR alterations): 22% | Disease control rate ([3]; FIGHT-202, other FGF/FGFR alterations): 40% | Stable disease ([4]; FGF amplification): 20% | Stable disease ([4]; FGFR amplification): 26.9% | Stable disease ([4]; FGFR fusions or rearrangements): 50% | Median PFS ([4]; FGFR fusions or rearrangements (n = 20)): 5.7 months | Stable disease ([4]; FGFR mutations): 23.1% | Median PFS ([4]; FGFR mutations (n = 13)): 5.0 months | Time to disease progression, individual patient ([4]; adenoid cystic carcinoma of the head and neck, 9 mg QD (CD)): 20.5 months | Time on treatment to PR, individual patient ([4]; adenoid cystic carcinoma of the head and neck, 9 mg QD (CD), no FGF/FGFR alterations): 6.0 months | Disease progression ([4]; all patients (N = 128)): 38.3% | Median PFS ([4]; all patients (N = 128)): 2.8 months | Partial response ([4]; all patients (N = 128)): 9.4% | Partial responses achieved, number ([4]; all patients (N = 128)): 12 | Stable disease ([4]; all patients (N = 128)): 31.3% | Median duration of response ([4]; all responders (n = 12)): 7.3 months | Partial response [4, 7]: 23.1% | Stable disease [4, 7]: 61.5% | Duration of response, individual patient ([4]; cholangiocarcinoma, FGFR2-CCDC6 fusion): 11.3 months | Time on treatment to PR, individual patient ([4]; non-small-cell lung cancer, 9 mg QD (CD), FGF/FGFR status unknown): 6.2 months | Duration of response, individual patient ([4]; non-small-cell lung cancer, 9 mg QD (CD), ongoing at database lock): 29.9 months | Duration of response, individual patient ([4]; pancreatic cancer, FGFR2-USP33 fusion): 10.7 months | Stable disease ([4]; patients with FGF/FGFR alterations): 30.4% | ORR ([4]; patients with FGFR fusions or rearrangements): 25.0% | ORR ([4]; patients with FGFR mutations): 23.1% | Best median percentage change in target lesion size ([4]; patients with SD and FGF/FGFR alterations (n = 24)): −8.0% | Median PFS ([4]; positive for FGF/FGFR alterations (n = 79)): 3.0 months
